The values that follow are results of earlier work, collected in paper PMC3161514 (Chemistry & biology, 2011).

Data set [1] deals with several strains of S. aureus. As to conditions: against several strains of S. aureus; ref Castiglione, et al., 2008.
For data set [2], the system named is methicillin-resistant S. aureus (MRSA). As to conditions: MIC values among the lowest reported for lantibiotics, ref Ekkelenkamp, et al., 2005, Verhoef.
Data set [3] has as its system vancomycin-resistant Enterococci (VRE). As to conditions: MIC values among the lowest reported for lantibiotics, ref Ekkelenkamp, et al., 2005, Verhoef.

In the case of microbisporicin, the “Potency relative to epidermin” value in data set [1] is “two orders of magnitude more potent”.
With epilancin 15X, in data set [2], the “Activity against MRSA” value is reported as “active”. Besides, the “Activity against VRE” value in data set [3] is given as “active”.
